Entries after “also recorded” stand apart in the source; their conditions may differ. Where a SMILES comes first, the peptide text is derived from it. The star is where a group is joined. Cbz = O=C(OCc1ccccc1)*
How the values were obtained:
[1] = test system: IDH1 and IDH2; assay: Immunoblot of IDH1 and IDH2 after MG132 or MLN4924, RWPE1 cells; assay type: cell-based; conditions: 10 μM for 8 hours
Protocol: RWPE1 cells were incubated with 10 μM MG132 or MLN4924 for 8 hours, followed by immunoblot analysis of IDH1 and IDH2. FIG. 16B are immunoblots showing that IDH1 specifically interacts with Cullin 1 in cells. Immunoblot analysis of immunoprecipitates (IP) and whole cell lysates (WCL) derived from HEK293 cells transfected with Flag-IDH1 and the indicated Myc-tagged Cullins for 48 hours. FIG. 16C are immunoblots showing that IDH1 specifically interacts with two F-box proteins, Skp2, and to a lesser extent, Fbw4, in cells. Immunoblot analysis of IP and WCL derived from HEK293 cells transfected with Flag-IDH1 and the indicated CMV-GST-tagged F-box proteins for 48 hours. FIG. 16D are immunoblots showing depletion of SKP2 in HeLa cells leads to accumulated IDH1. […] The labeled glycolytic intermediates were measured using HPLC-MS. n=3, * p<0.05, ** p<0.01, ***p<0.001. […] The labeled TCA cycle intermediates were measured using HPLC-MS. n=3, * p<0.05, ** p<0.01, *** p<0.001.
(§1) Cells were lysed in EBC buffer (50 mM Tris pH 7.5, 120 mM NaCl, 0.5% NP-40) supplemented with protease inhibitors (cOmplete Mini, Roche) and phosphatase inhibitors (phosphatase inhibitor cocktail set I and II, Calbiochem). The protein concentrations of the lysates were measured using the Bio-Rad protein assay reagent on a Beckman Coulter DU-800 spectrophotometer. […]

[2] = test system: IDH1 and IDH2; assay: Immunoblot of IDH1 and IDH2 after SKPin C1 treatment, 22-Rv1 cells; assay type: cell-based, human; conditions: 22-Rv1 cells, 0, 1, 3, 10, or 30 μM for 24 hours
Protocol: (§2) 22-Rv1 cells were treated with 0, 1, 3, 10, or 30 μM SKPin C1 for 24 hours, and then harvested for immunoblot analysis. […] LNCaP and 22-Rv1 cells were plated in 6-well plate (1500 cell/well), treated with 0, 0.1, 0.3, or 1 μM Skin C1 for 7 days, and changed to fresh media for another 3 weeks. […] HAP1-IDH1^−/−, HAP1-IDH2^−/− and parental cells were treated with 3 μM SKPin C1 for 24 hours, followed by OCR analysis by Seahorse XF 24 analyzer. * p<0.05.
HeLa and HCT116 cells were used for synchronization. HeLa cells, which have low endogenous Skp2 activity, were used for ectopic expression-based degradation assays. HEK293 cell line was used for ubiquitination assays and co-IP assays to define the interaction between two ectopically expressed proteins, which is the most frequently used cell line for this type of experiment. Human prostate cancer cells, DU145, PC3, LNCaP, VCaP, 22Rv1 and C4-2 were used for compared endogenous Skp2 and IDH1 levels, as well as Skp2 knockdown and Skp2 overexpression. […]
as §1

[3] = test system: IDH1 and IDH2; assay: Immunoblot of IDH1 and IDH2 after SKPin C1 treatment, LNCaP cells; assay type: cell-based, human; conditions: LNCaP cells, 0, 1, 3, 10 or 30 μM for 24 hours
Protocol: (§3) LNCaP cells were treated with 0, 1, 3, 10 or 30 μM SKPin C1 for 24 hours, harvested for immunoblot analysis of indicated proteins. […] 22Rv1 cells were treated with 10 μM SKPin C1 for 24 hours, harvested for fraction of cytoplasm (C), mitochondria (M), and nuclei (N), followed by immunoblot analysis of indicated proteins. FIG. 11C is a graph showing depletion of endogenous ID111 or IDH2 abolishes the effect of SKPin C1 on OCR. HAP1-IDH1^−/−, IDH2^−/− and parental cells were treated with 3 μM SKPin C1 for 24 hours, followed by OCR analysis by Seahorse XF 24 analyzer. The concentration of oligomycin, FCCP and antimycin A are 1 μM, 0.6 μM and 3 μM, respectively (mean±s.e.m, n=3). […] HAP1-Skp2^+/+ and Skp2^−/− cells were treated with indicated SKPin C1 for 24 hours, followed by immunoblot analysis for indicated proteins. […] Statistical analysis, ** p<0.01. […] Statistical analysis, * p<0.05, ** p<0.01. […]
as §1

[4] = test system: IDH1 and IDH2; assay: Fractionation of cytoplasm, mitochondria and nuclei with immunoblot, 22Rv1 cells; assay type: cell-based, human; conditions: 10 μM for 24 hours
Protocol: LNCaP cells were treated with 0, 1, 3, 10 or 30 μM SKPin C1 for 24 hours, harvested for immunoblot analysis of indicated proteins. […] 22Rv1 cells were treated with 10 μM SKPin C1 for 24 hours, harvested for fraction of cytoplasm (C), mitochondria (M), and nuclei (N), followed by immunoblot analysis of indicated proteins. FIG. 11C is a graph showing depletion of endogenous ID111 or IDH2 abolishes the effect of SKPin C1 on OCR. HAP1-IDH1^−/−, IDH2^−/− and parental cells were treated with 3 μM SKPin C1 for 24 hours, followed by OCR analysis by Seahorse XF 24 analyzer. The concentration of oligomycin, FCCP and antimycin A are 1 μM, 0.6 μM and 3 μM, respectively (mean±s.e.m, n=3). […] HAP1-Skp2^+/+ and Skp2^−/− cells were treated with indicated SKPin C1 for 24 hours, followed by immunoblot analysis for indicated proteins. […] Statistical analysis, ** p<0.01. […] Statistical analysis, * p<0.05, ** p<0.01. […] HAP1-Skp2^+/+ and Skp2^−/− cells were treated with 1 μM SKPin C1 for 24 hours, followed by ECAR analysis by Seahorse XF 24 analyzer. […] HAP1-Skp2^+/+ and Skp2^−/− cells were treated with 1 μM SKPin C1 for 24 hours, followed by OCR analysis by Seahorse XF 24 analyzer. The concentration of oligomycin, FCCP and antimycin A are 1 μM, 0.6 μM and 3 μM, respectively (mean±s.e.m, n=3, ** p<0.01, *** p<0.001).
Cells were harvested and subjected to fractionation of cytoplasm (C), mitochondria (M), and nuclei (N) using Cell Fractionation kit (ab109719, Abcam). All fractions and the whole cell lysate (WCL) were subjected to immunoblot analysis for the indicated proteins, with tubulin, citrate synthase, and Histone H3 as markers of cytoplasm, mitochondria, and nucleus, respectively.

[5] = test system: LNCaP cells; assay: Colony formation assay, LNCaP cells; assay type: cell-based, human; conditions: 1500 cell/well, 0, 0.1, 0.3, or 1 μM for 7 days, fresh media another 3 weeks
Protocol: as §2
(§4) Cells were cultured in 10% FBS containing DMEM or RPMI-1640 media before plating into 6-well plate at 10,000 cells (3,000 cells for HeLa) per well. Ten days later, cells were fixed with 10% acetic acid/10% methanol for 10 min, stained with 0.4% crystal violet/20% ethanol, followed by counting the colony numbers. For soft agar assays, cells were seeded in 0.4% low-melting-point agarose in DMEM or RPMI-1640 with 10% FBS at 100,000 per well (30,000 cells for HeLa), layered onto 0.8% agarose in DMEM or RPMI-1640 with 10% FBS. The plates were kept in the cell culture incubator for 3-4 weeks after which the cells were stained with iodonitrotetrazolium chloride and colonies were counted.

[6] = test system: 22-Rv1 cells; assay: Colony formation assay, 22-Rv1 cells; assay type: cell-based, human; conditions: 22-Rv1, 1500 cell/well, 0, 0.1, 0.3, or 1 μM for 7 days, fresh media another 3 weeks
Protocol: as §2, §4

[7] = test system: HAP1 cells; assay: Seahorse XF24 oxygen consumption rate (OCR) analysis, HAP1 cells; assay type: cell-based, human
Protocol: (§5) LNCaP cells were treated with 0, 1, 3, 10 or 30 μM SKPin C1 for 24 hours, harvested for immunoblot analysis of indicated proteins. […] 22Rv1 cells were treated with 10 μM SKPin C1 for 24 hours, harvested for fraction of cytoplasm (C), mitochondria (M), and nuclei (N), followed by immunoblot analysis of indicated proteins. FIG. 11C is a graph showing depletion of endogenous ID111 or IDH2 abolishes the effect of SKPin C1 on OCR. HAP1-IDH1^−/−, IDH2^−/− and parental cells were treated with 3 μM SKPin C1 for 24 hours, followed by OCR analysis by Seahorse XF 24 analyzer. The concentration of oligomycin, FCCP and antimycin A are 1 μM, 0.6 μM and 3 μM, respectively (mean±s.e.m, n=3). […] HAP1-Skp2^+/+ and Skp2^−/− cells were treated with indicated SKPin C1 for 24 hours, followed by immunoblot analysis for indicated proteins. […] Statistical analysis, ** p<0.01. […] Statistical analysis, * p<0.05, ** p<0.01. […] HAP1-Skp2^+/+ and Skp2^−/− cells were treated with 1 μM SKPin C1 for 24 hours, followed by ECAR analysis by Seahorse XF 24 analyzer. […] HAP1-Skp2^+/+ and Skp2^−/− cells were treated with 1 μM SKPin C1 for 24 hours, followed by OCR analysis by Seahorse XF 24 analyzer. […]
(§6) Oxygen consumption rate (OCR) and extracellular acidification rate (ECAR) were measured using Seahorse XF24 analyzer (Boston, Mass., USA). […]

[8] = test system: IDH1 and IDH2; assay: Immunoblot of IDH1 and IDH2 in HAP1-Skp2+/+ and Skp2-/- cells; assay type: cell-based, human; conditions: 24 hours
Protocol: as §3, §1

[9] = test system: HAP1 cells; assay: Seahorse XF24 extracellular acidification rate (ECAR) analysis, HAP1 cells; assay type: cell-based, human; conditions: 1 μM for 24 hours
Protocol: as §5, §6

| SMILES | IDH1 and IDH2 protein abundance (immunoblot) [1] | IDH1 and IDH2 protein abundance (immunoblot) [2] | IDH1 and IDH2 protein abundance (immunoblot) [3] | IDH1 localization after treatment [4] | IDH2 localization after treatment [4] | IDH1 and IDH2 protein abundance in cell fractions ([4]; cytoplasm/mitochondria/nuclei fractions) | Colony growth [5] | Colony growth [6] | Effect on OCR in HAP1-Skp2+/+ and Skp2-/- cells ([7]; 1 μM for 24 hours) | Effect on OCR in HAP1-IDH1-/-, HAP1-IDH2-/- and parental cells ([7]; 3 μM for 24 hours) | Effect on IDH1 and IDH2 in HAP1-Skp2+/+ and Skp2-/- cells [8] | Effect on ECAR in HAP1-Skp2+/+ and Skp2-/- cells [9] |
| --- | --- | --- | --- | --- | --- | --- | --- | --- | --- | --- | --- | --- |
| CC(C)C[C@@H](C=O)NC(=O)[C@H](CC(C)C)NC(=O)[C@H](CC(C)C)NC(=O)OCc1ccccc1 [MG132] (Cbz-Leu-Leu-Leu-aldehyde) | elevated; also recorded: accumulation of IDH1 and IDH2 |  |  |  |  |  |  |  |  |  |  |  |
| O=C(O)COc1ccc(Br)cc1/C=C1\SC(=S)N(Cc2cccnc2)C1=O [SKPin C1] |  | significantly stabilized both IDH1 and IDH2; also recorded: robust accumulation of IDH1 and IDH2 | significantly stabilized both IDH1 and IDH2; also recorded: accumulated protein abundance of IDH1 and IDH2 | mainly localized in the cytoplasmic fraction regardless of SKPin C1 treatment | detected in the cytoplasmic fraction | accumulated protein abundance of IDH1 and IDH2 in cytoplasm | blocks the colony growth | blocks the colony growth | depletion of Skp2 abolishes the effect of SKPin C1 on OCR | depletion of endogenous IDH1 or IDH2 abolishes the effects of SKPin C1 on OCR | depletion of Skp2 abolishes the effect of SKPin C1 on IDH1 and IDH2 | depletion of Skp2 abolishes the effect of SKPin C1 on ECAR |
| NS(=O)(=O)OC[C@@H]1C[C@@H](n2ccc3c(N[C@H]4CCc5ccccc54)ncnc32)C[C@@H]1O [MLN4924] | elevated; also recorded: accumulation of IDH1 and IDH2 |  |  |  |  |  |  |  |  |  |  |  |

Source: US20210052598A1, “COMPOSITIONS AND METHODS FOR TREATING CANCER” (Beth Israel Deaconess Medical Center, Inc., priority 2018, published 2021)
